Measured values published in ChEMBL document CHEMBL1152021, “(E) and (Z)-3-Styrylpiperidines as sigma ligands” (Bioorg Med Chem Lett, 1997).

Legend:
[1] = biological target: Sigma non-opioid intracellular receptor 1 (Rattus norvegicus, UniProt Q9R0C9); assay: Binding affinity at sigma receptor by [3H](+)-SKF-10047 displacement.
D(1A) dopamine receptor = D(1A) dopamine receptor (Rattus norvegicus, UniProt P18901); assay: Binding affinity at dopamine D1 receptor in rat striatum by [3H][…] displacement.; format: tissue-based
Chain of D(1A) dopamine receptor (P18901 whole entry): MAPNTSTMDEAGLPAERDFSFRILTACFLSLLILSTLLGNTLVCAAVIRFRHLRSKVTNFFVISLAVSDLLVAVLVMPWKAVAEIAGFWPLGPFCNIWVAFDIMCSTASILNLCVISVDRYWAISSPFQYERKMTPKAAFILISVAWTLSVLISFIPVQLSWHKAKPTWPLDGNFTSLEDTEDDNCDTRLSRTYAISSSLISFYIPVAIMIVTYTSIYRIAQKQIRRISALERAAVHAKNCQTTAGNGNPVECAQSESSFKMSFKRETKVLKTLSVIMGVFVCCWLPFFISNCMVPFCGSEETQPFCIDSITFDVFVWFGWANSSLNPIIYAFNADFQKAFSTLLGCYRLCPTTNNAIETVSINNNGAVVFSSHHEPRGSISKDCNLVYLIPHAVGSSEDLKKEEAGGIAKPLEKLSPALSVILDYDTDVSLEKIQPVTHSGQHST

D(2) dopamine receptor = D(2) dopamine receptor (Rattus norvegicus, UniProt P61169); assay: Binding affinity at dopamine D2 receptor in rat striatum by [3H]spiperone displacement.; format: tissue-based
Chain of D(2) dopamine receptor (P61169 whole entry): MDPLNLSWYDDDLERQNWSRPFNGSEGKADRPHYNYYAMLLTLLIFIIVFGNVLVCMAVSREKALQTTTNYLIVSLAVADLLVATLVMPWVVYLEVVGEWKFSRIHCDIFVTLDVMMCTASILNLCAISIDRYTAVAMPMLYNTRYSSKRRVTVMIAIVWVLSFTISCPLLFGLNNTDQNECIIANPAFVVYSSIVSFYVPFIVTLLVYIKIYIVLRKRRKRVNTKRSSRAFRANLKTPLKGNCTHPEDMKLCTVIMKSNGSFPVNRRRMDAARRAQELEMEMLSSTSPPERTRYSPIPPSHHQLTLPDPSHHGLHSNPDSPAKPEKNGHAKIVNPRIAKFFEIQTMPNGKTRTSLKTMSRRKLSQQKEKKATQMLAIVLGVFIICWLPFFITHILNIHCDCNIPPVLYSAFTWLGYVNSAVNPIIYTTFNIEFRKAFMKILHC

Chain of Sigma non-opioid intracellular receptor 1 (Q9R0C9 whole entry): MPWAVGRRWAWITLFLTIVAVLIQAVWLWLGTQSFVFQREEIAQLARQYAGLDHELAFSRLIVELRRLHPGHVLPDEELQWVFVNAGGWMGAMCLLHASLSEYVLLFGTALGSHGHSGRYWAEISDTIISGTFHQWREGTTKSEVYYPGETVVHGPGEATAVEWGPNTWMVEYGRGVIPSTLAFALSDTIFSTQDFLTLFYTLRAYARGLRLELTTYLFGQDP

IC50 [1] [µM]	IC50 (D(1A) dopamine receptor) [µM]	IC50 (D(2) dopamine receptor) [µM]	SMILES
0.033			C(=C\C1CCCN(CCCOc2ccccc2)C1)/c1ccccc1 (stereo not drawn)
0.004	1.55	1.24	C(=C\C1CCCN(CCCc2ccccc2)C1)/c1ccccc1 (stereo not drawn)
0.027			C(=C/C1CCCN(CCCSc2nc3ccccc3s2)C1)/c1ccccc1 (stereo not drawn)
0.015			C(=C/C1CCCN(CCCOc2ccccc2)C1)/c1ccccc1 (stereo not drawn)
0.0006	2.2	0.15	C(=C/C1CCCN(CCCc2ccccc2)C1)/c1ccccc1 (stereo not drawn)
0.0008	0.63	0.12	C(=C/C1CCCN(CCc2ccccc2)C1)/c1ccccc1 (stereo not drawn)
0.006	> 10	2.4	C(=C\C1CCCN(CCc2ccccc2)C1)/c1ccccc1 (stereo not drawn)
0.007	5.84	1.44	C(=C/C1CCCN(CCCCc2ccccc2)C1)/c1ccccc1 (stereo not drawn)

Second part, the compound before the results:

SMILES	IC50 [1] [µM]	IC50 (D(1A) dopamine receptor) [µM]	IC50 (D(2) dopamine receptor) [µM]
C(=C/C1CCCN(CCC2CCCCC2)C1)/c1ccccc1 (stereo not drawn)	0.007	> 10	5.44
O=C(CCCN1CCCC(/C=C\c2ccccc2)C1)c1ccccc1 (stereo not drawn)	0.015		
C(=C\C1CCCN(Cc2ccccc2)C1)/c1ccccc1 (stereo not drawn)	0.01		
C(=C/C1CCCN(C2CCCCC2)C1)/c1ccccc1 (stereo not drawn)	0.002	> 10	1.12
C=CCCCN1CCCC(/C=C/c2ccccc2)C1 (stereo not drawn)	0.012		
O=C(CN1CCCC(/C=C\c2ccccc2)C1)Nc1ccccc1 (stereo not drawn)	0.64		
C(=C\C1CCCNC1)/c1ccccc1 (stereo not drawn)	0.423	> 10	> 10
CC(C)=CCN1CCCC(/C=C/c2ccccc2)C1 (stereo not drawn)	0.038	1.33	0.18
C(=C\C1CCCN(C2CCCCC2)C1)/c1ccccc1 (stereo not drawn)	0.006	> 10	5.12
C(=C/C1CCCNC1)/c1ccccc1 (stereo not drawn)	0.064	> 10	0.87
C=CCN1CCCC(/C=C/c2ccccc2)C1 (stereo not drawn)	0.004	> 10	> 10
O=C1c2ccccc2S(=O)(=O)N1CCCCN1CCCC(/C=C/c2ccccc2)C1 (stereo not drawn)	0.023		
CC(C)=CCN1CCCC(/C=C\c2ccccc2)C1 (stereo not drawn)	0.001	0.32	0.16
O=C(NCCCCN1CCCC(/C=C\c2ccccc2)C1)C12C[C@H]3C[C@@H](C1)C[C@@H](C2)C3 (stereo partly drawn)	0.023		
